Experimental data taken from PubChem BioAssay AID248 (DTP/NCI, 2004).
“And” between values parts separate entries of the source, which are not always exact repeats. Equal entries are not always repeated. Toxic doses and inconclusive results are not listed. Cut-off read from the data, not from the text of the source: active = T/C of 150% or more; inactive = T/C below 125%.

System: L1210 leukemia ip in BDF1 mice, survival T/C
Test: NCI In Vivo Anticancer Drug Screen. Data for tumor model L1210 Leukemia (intraperitoneal) in B6D2F1 (BDF1) mice
Conditions: endpoint: mean survival time, higher = longer survival
Outline: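 Ratio derived from survival: compound-dosed mice over vehicle-dosed mice, all bearing a transplantable tumor.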

[1] = dose: 100.0 mg/kg/injection, schedule: Q04DX003 (ip), vehicle: Klucel (hydroxypropylcellulose) (HPC)
[2] = dose: 200.0 mg/kg/injection, schedule: Q04DX003 (ip), vehicle: Klucel (hydroxypropylcellulose) (HPC)
[3] = dose: 400.0 mg/kg/injection, schedule: Q04DX003 (ip), vehicle: Klucel (hydroxypropylcellulose) (HPC)
[4] = dose: 50.0 mg/kg/injection, schedule: Q04DX003 (ip), vehicle: saline with Tween-80
[5] = dose: 100.0 mg/kg/injection, schedule: Q01DX001 (ip), vehicle: carboxymethylcellulose (CMC)
[6] = dose: 200.0 mg/kg/injection, schedule: Q01DX001 (ip), vehicle: carboxymethylcellulose (CMC)
[7] = dose: 100.0 mg/kg/injection, schedule: Q01DX001 (ip), vehicle: saline
[8] = dose: 200.0 mg/kg/injection, schedule: Q01DX001 (ip), vehicle: saline
[9] = dose: 400.0 mg/kg/injection, schedule: Q01DX001 (ip), vehicle: saline
[10] = dose: 100.0 mg/kg/injection, schedule: Q04DX003 (ip), vehicle: saline
[11] = dose: 100.0 mg/kg/injection, schedule: Q01DX009 (ip), vehicle: saline with Tween-80
[12] = dose: 100.0 mg/kg/injection, schedule: Q01DX001 (ip), vehicle: other
[13] = dose: 200.0 mg/kg/injection, schedule: Q01DX001 (ip), vehicle: other

Measured: T/C

COc1ccc(C(=Nc2ccc(C)cc2)c2ccccc2)cc1
inactive: dose: 12.0 mg/kg/injection, schedule: Q01DX009 (ip), vehicle: Klucel (hydroxypropylcellulose) (HPC) 105 % of control | dose: 12.5 mg/kg/injection, schedule: Q01DX009 (ip), vehicle: Klucel (hydroxypropylcellulose) (HPC) 102 % of control | dose: 25.0 mg/kg/injection, schedule: Q01DX009 (ip), vehicle: Klucel (hydroxypropylcellulose) (HPC) 105 % of control | dose: 50.0 mg/kg/injection, schedule: Q01DX009 (ip), vehicle: Klucel (hydroxypropylcellulose) (HPC) 97 % of control and 113 % of control | dose: 100.0 mg/kg/injection, schedule: Q01DX009 (ip), vehicle: Klucel (hydroxypropylcellulose) (HPC) 122 % of control | [1] 101 % of control | dose: 200.0 mg/kg/injection, schedule: Q01DX009 (ip), vehicle: Klucel (hydroxypropylcellulose) (HPC) 107 % of control | [2] 98 % of control | dose: 400.0 mg/kg/injection, schedule: Q01DX009 (ip), vehicle: Klucel (hydroxypropylcellulose) (HPC) 107 % of control | [3] 98 % of control

CCOC(=O)NCNC(=O)OCC
inactive: dose: 100.0 mg/kg/injection, schedule: Q01DX009 (ip), vehicle: saline sonified 104 % of control | dose: 100.0 mg/kg/injection, schedule: Q04DX003 (ip), vehicle: saline sonified 100 % of control | dose: 200.0 mg/kg/injection, schedule: Q01DX009 (ip), vehicle: saline sonified 95 % of control | dose: 200.0 mg/kg/injection, schedule: Q04DX003 (ip), vehicle: saline sonified 97 % of control | dose: 400.0 mg/kg/injection, schedule: Q01DX009 (ip), vehicle: saline sonified 91 % of control | dose: 400.0 mg/kg/injection, schedule: Q04DX003 (ip), vehicle: saline sonified 94 % of control

CCCCCCCCCCCCCCCCCCNC(=O)N1CCC(C)CC1
inactive: dose: 100.0 mg/kg/injection, schedule: Q04DX002 (ip), vehicle: Klucel (hydroxypropylcellulose) (HPC) 97 % of control | dose: 200.0 mg/kg/injection, schedule: Q04DX002 (ip), vehicle: Klucel (hydroxypropylcellulose) (HPC) 100 % of control | dose: 400.0 mg/kg/injection, schedule: Q04DX002 (ip), vehicle: Klucel (hydroxypropylcellulose) (HPC) 97 % of control

CC1(C)OCC2SC(n3cnc4c(N)ncnc43)C(OS(C)(=O)=O)C2O1 (stereo not drawn)
inactive: dose: 100.0 mg/kg/injection, schedule: Q01DX005 (ip), vehicle: saline 97 % of control | dose: 200.0 mg/kg/injection, schedule: Q01DX005 (ip), vehicle: saline 90 % of control

CCCCN1C(=O)N(c2ccc(OCC)cc2)C2N(CCCC)C1C(C)(C)C2(C)C (stereo not drawn)
inactive: dose: 25.0 mg/kg/injection, schedule: Q04DX002 (ip), vehicle: saline with Tween-80 103 % of control | dose: 50.0 mg/kg/injection, schedule: Q04DX002 (ip), vehicle: saline with Tween-80 118 % of control | dose: 100.0 mg/kg/injection, schedule: Q04DX002 (ip), vehicle: saline with Tween-80 122 % of control

c1ccc([P+](c2ccccc2)(c2ccccc2)C2CCC2)cc1
inactive: dose: 9.4 mg/kg/injection, schedule: Q01DX009 (ip), vehicle: saline with Tween-80 121 % of control | dose: 18.8 mg/kg/injection, schedule: Q01DX009 (ip), vehicle: saline with Tween-80 88 % of control

CN1C(=O)CC(C(=O)CBr)(c2ccccc2)C1=O (stereo not drawn)
inactive: dose: 25.0 mg/kg/injection, schedule: Q04DX003 (ip), vehicle: saline with Tween-80 109 % of control | [4] 101 % of control

Cc1cc2ccccn2c1C(=O)c1ccccc1
inactive: [5] 107 % of control | dose: 100.0 mg/kg/injection, schedule: Q01DX009 (ip), vehicle: carboxymethylcellulose (CMC) 106 % of control | dose: 100.0 mg/kg/injection, schedule: Q04DX002 (ip), vehicle: carboxymethylcellulose (CMC) 98 % of control and 102 % of control | dose: 100.0 mg/kg/injection, schedule: Q04DX003 (ip), vehicle: carboxymethylcellulose (CMC) 102 % of control | [6] 98 % of control | dose: 200.0 mg/kg/injection, schedule: Q01DX009 (ip), vehicle: carboxymethylcellulose (CMC) 96 % of control and 106 % of control | dose: 200.0 mg/kg/injection, schedule: Q04DX002 (ip), vehicle: carboxymethylcellulose (CMC) 94 % of control and 107 % of control | dose: 200.0 mg/kg/injection, schedule: Q04DX003 (ip), vehicle: carboxymethylcellulose (CMC) 102 % of control | dose: 400.0 mg/kg/injection, schedule: Q01DX001 (ip), vehicle: carboxymethylcellulose (CMC) 98 % of control | dose: 400.0 mg/kg/injection, schedule: Q01DX009 (ip), vehicle: carboxymethylcellulose (CMC) 95 % of control and 102 % of control | dose: 400.0 mg/kg/injection, schedule: Q04DX002 (ip), vehicle: carboxymethylcellulose (CMC) 93 % of control and 102 % of control | dose: 400.0 mg/kg/injection, schedule: Q04DX003 (ip), vehicle: carboxymethylcellulose (CMC) 102 % of control

Cc1[nH]c(=O)[nH]c(=O)c1CCS
inactive: [7] 94 % of control | [8] 95 % of control | [9] 101 % of control

NCc1cc(=O)[nH]c(=O)[nH]1
inactive: [10] 104 % of control | dose: 400.0 mg/kg/injection, schedule: Q04DX003 (ip), vehicle: saline 89 % of control

CC(=O)Nc1ccc2c(c1)C[N+](C)(C1CCCCC1)CO2 (stereo not drawn)
inactive: dose: 25.0 mg/kg/injection, schedule: Q01DX009 (ip), vehicle: saline with Tween-80 101 % of control | dose: 25.0 mg/kg/injection, schedule: Q01DX015 (ip), vehicle: carboxymethylcellulose (CMC) 103 % of control | dose: 50.0 mg/kg/injection, schedule: Q01DX009 (ip), vehicle: saline with Tween-80 95 % of control | dose: 50.0 mg/kg/injection, schedule: Q01DX015 (ip), vehicle: carboxymethylcellulose (CMC) 98 % of control | [4] 97 % of control | [5] 92 % of control | [11] 95 % of control | dose: 100.0 mg/kg/injection, schedule: Q04DX003 (ip), vehicle: saline with Tween-80 100 % of control | [6] 94 % of control

COc1cc2c(cc1[N+](=O)[O-])-c1ccc([N+](=O)[O-])cc1/C2=N/NC(N)=S
inactive: dose: 75.0 mg/kg/injection, schedule: Q01DX001 (ip), vehicle: carboxymethylcellulose (CMC) 101 % of control

O=C(/C=C/c1ccccc1)CC(O)(C(F)(F)F)C(F)(F)F
inactive: dose: 100.0 mg/kg/injection, schedule: Q04DX003 (sc), vehicle: olive oil, sesame oil, peanut oil 113 % of control | dose: 200.0 mg/kg/injection, schedule: Q04DX003 (sc), vehicle: olive oil, sesame oil, peanut oil 113 % of control | dose: 400.0 mg/kg/injection, schedule: Q04DX003 (sc), vehicle: olive oil, sesame oil, peanut oil 108 % of control

c1ccc(-c2sc(-c3ccccc3)c(-c3ccccc3)c2-c2ccccc2)cc1
inactive: [1] 93 % of control | [2] 95 % of control | [3] 95 % of control

O=C1C=CC(=O)N1c1ccc(Cl)cc1
inactive: dose: 10.0 mg/kg/injection, schedule: Q01DX009 (ip), vehicle: Klucel (hydroxypropylcellulose) (HPC) 100 % of control | dose: 10.0 mg/kg/injection, schedule: Q04DX003 (ip), vehicle: other 97 % of control | dose: 20.0 mg/kg/injection, schedule: Q01DX009 (ip), vehicle: Klucel (hydroxypropylcellulose) (HPC) 88 % of control | dose: 20.0 mg/kg/injection, schedule: Q04DX003 (ip), vehicle: other 95 % of control | dose: 40.0 mg/kg/injection, schedule: Q04DX003 (ip), vehicle: other 95 % of control

CC(=O)Nc1ccc(S(=O)(=O)NC(C)=O)cc1
inactive: [12] 94 % of control | [11] 108 % of control | [13] 96 % of control | dose: 400.0 mg/kg/injection, schedule: Q01DX001 (ip), vehicle: other 107 % of control | dose: 400.0 mg/kg/injection, schedule: Q01DX009 (ip), vehicle: saline with Tween-80 97 % of control

NC(=O)C(=O)NO
inactive: [7] 97 % of control | [8] 106 % of control | [9] 105 % of control

COc1cccc(/C=C/[N+](=O)[O-])c1OC
inactive: dose: 17.5 mg/kg/injection, schedule: Q01DX009 (ip), vehicle: saline with Tween-80 90 % of control | dose: 35.0 mg/kg/injection, schedule: Q01DX009 (ip), vehicle: saline with Tween-80 101 % of control | dose: 50.0 mg/kg/injection, schedule: Q01DX001 (ip), vehicle: other 103 % of control | dose: 50.0 mg/kg/injection, schedule: Q01DX009 (ip), vehicle: saline 107 % of control | dose: 70.0 mg/kg/injection, schedule: Q01DX009 (ip), vehicle: saline with Tween-80 95 % of control | [12] 97 % of control | [10] 108 % of control | [13] 103 % of control | dose: 200.0 mg/kg/injection, schedule: Q04DX003 (ip), vehicle: saline 100 % of control
